Assay results taken from patent US20210222144A1, “SELECTIVE HYDRATION OF OLEIC ACID DERIVATIVES” (priority 2018, published 2021).

Assays:
OhyA wild type (WT) = molecular target: T1, OhyA wild type (WT) (Elizabethkingia meningoseptica, UniProt C7DLJ6); test: Whole cell E. coli biotransformation, hydration of oleic acid and derivatives by OhyA wild type; type: cell-based; settings: whole cell E. coli biocatalyst, 2 mM substrate, 30° C., pH 6.0
T1 construct: His tag with TEV site by the vector name (HISTEV); expressed in transfected cells; host or cells: E. coli BL21 Star (DE3)
Protocol: (§1) Free fatty acids were identified and analyzed by gas chromatography-mass spectrometry (GC-MS) and comparison of derived mass fragmentation spectra to authentic standards. A HP-5 column (crosslinked 5% Ph-Me Siloxane; 30 m length, 0.25 mm in diameter and 0.25 μm film thickness) on a Hewlett-Packard 6890 Series II GC equipped with a mass selective detector was used. Sample aliquots of 1 μL were injected in split mode (split ratio 30:1) at 240° C. injector temperature and 290° C. detector temperature with N2 as carrier at a flow rate set to 36 cm s^−1 in constant flow mode. The temperature program was as follows: 100° C. for 1 min, 15° C. min^−1 to 300° C., hold for 5 min. The total run time was 19.33 min. The mass selective detector was operated in a mass range of 50-400 amu at an electron multiplier voltage of 1765 V. Results were evaluated with the GC-MS Data Analysis software (Agilent Technologies, Austria).
(§2) OhyA was recombinantly expressed in E. coli. First, a pre-culture was inoculated with E. coli BL21 Star (DE3) cells harboring pMS470-HISTEV-OhyA wild type enzyme or variants, and was grown in LB supplemented with 100 μg mL^−1 ampicillin at 28° C. and 130 rpm overnight. Main cultures were inoculated to an OD600 of 0.1 in auto induction medium (AIM)—Terrific Broth Base including Trace elements (Formedium, UK) containing 100 μg mL^−1 ampicillin. Recombinant protein was expressed at 28° C. and 130 rpm for 22 h. Cells were harvested by centrifugation for 10 min at 4,400×g and 22° C. and were instantly used for whole cell biotransformation or were frozen at −20° C. until protein purification.
(§3) For bioconversion assays of oleic acid (OA) and OA derivatives, i.e. substrates (1) to (10), 50 OD600 units of thus prepared cells, which are corresponding to a cell dry weight of 50 mg, were resuspended in 50 mM HEPES, pH 6.0, supplemented with 100 mM glucose and 0.2 mM FAD in Pyrex® glass culture tubes (Corning, N.Y.). Biotransformation at 1 mL scale were started by adding substrate to a final concentration of 2 mM from an ethanolic stock solution (100 mM). n-pentadecanoic acid (1 mM) was used as internal standard. The reactions were conducted in the presence of 2% (v/v) of ethanol as co-solvent at 30° C. and shaking at 150 rpm at a defined angle of the Pyrex® tubes (55°). Biotransformation were performed for 22 h or 96 h. The assays were quenched by acidification to pH 2.0 with 0.12 M HCl, and fatty acid derivatives were extracted twice with 2 mL of ethyl acetate while agitating on a Vibrax VXR basic shaker (IKA, Germany) for 30 min. The suspension was centrifuged for 5 min at 2,900×g and 22° C. to improve the separation of the phases. Combined organic phases were concentrated under a N2 stream. Fatty acid derivatives were silylated with 10 μL of pyridine and 50 μL of N,O-bis(trimethylsilyl)trifluoroacetamide (BSTFA). After incubation for 30 min at 500 rpm, extracts were diluted with 200 μL of ethyl acetate and analyzed by GC-MS. […]

OhyA Q265A/T436A/N438A = molecular target: T2, OhyA Q265A/T436A/N438A (Elizabethkingia meningoseptica, UniProt C7DLJ6, N438A/Q265A/T436A); test: Whole cell E. coli biotransformation, hydration of oleic acid and derivatives by mutant OhyA Q265A/T436A/N438A; type: cell-based; settings: for relative hydration activity compared to wt-OhyA: OhyA Q265A/T436A/N438A versus wt-OhyA; for e.e. of hydrated product: abs. conf. at C-10: R, table does not separate WT and mutant; for Apparent hydration activity normalized for biomass, OhyA Q265A/T436A/N438A: whole cell E. coli biocatalyst, 2 mM substrate, 30° C., pH 6.0
T2 construct: His tag with TEV site by the vector name (HISTEV); expressed in transfected cells; host or cells: E. coli BL21 Star (DE3)
Protocol: as §1, §2, §3

OhyA Q265A/N438A = molecular target: T3, OhyA Q265A/N438A (Elizabethkingia meningoseptica, UniProt C7DLJ6, N438A/Q265A); test: Bioconversion with modified OhyA variant Q265A/N438A; type: cell-based; settings: OhyA Q265A/N438A in bioconversions
T3 construct: His tag with TEV site by the vector name (HISTEV); expressed in transfected cells; host or cells: E. coli BL21 Star (DE3)
Protocol: as §2
For bioconversion assays of oleic acid (OA) and OA derivatives, i.e. substrates (1) to (10), 50 OD600 units of thus prepared cells, which are corresponding to a cell dry weight of 50 mg, were resuspended in 50 mM HEPES, pH 6.0, supplemented with 100 mM glucose and 0.2 mM FAD in Pyrex® glass culture tubes (Corning, N.Y.). Biotransformation at 1 mL scale were started by adding substrate to a final concentration of 2 mM from an ethanolic stock solution (100 mM). n-pentadecanoic acid (1 mM) was used as internal standard. […] After incubation for 30 min at 500 rpm, extracts were diluted with 200 μL of ethyl acetate and analyzed by GC-MS.

[1] = molecular target: oleate hydratase from Elizabethkingia meningoseptica (OhyA, EC 4.2.1.53) (Elizabethkingia meningoseptica, UniProt C7DLJ6); settings: wild-type OhyA, without co-factor recycling; cited from earlier work
[2] = molecular target: T4, mutant OhyA Q265A/T436A/N438A (Elizabethkingia meningoseptica, UniProt C7DLJ6, N438A/Q265A/T436A); test: Anaerobic in vitro hydration with purified OhyA after reduction of the FAD cofactor; type: biochemical; settings: purified enzyme, reduced FAD, overnight incubation, wt-OhyA compared with mutant
T4 construct: His tag with TEV site by the vector name (HISTEV); made in house; host or cells: E. coli BL21 Star (DE3)
Protocol: For purification of the recombinant OhyA, cell pellets were resuspended in 50 mM HEPES, pH 7.4, containing 10 mM imidazole. Cells were lysed by ultrasonication for 4 min with a Sonifier® 250 (Branson, Danbury, Conn.) setting the duty cycle to 80% and the output control to level 8. Cell free extract (CFE) was separated from the total cell lysate (TCL) by centrifugation for 35 min at 48,300×g and 4° C., and was filtered through 0.22 μm filters (Millipore, Bedford, Mass.) prior to loading it onto a pre-equilibrated self-packed Ni-NTA affinity chromatography column (GE Healthcare, United Kingdom). Prior to any further analyses, purified OhyA was incubated with a 10-fold molar excess of FAD over night at 4° C. Unbound FAD was removed from the protein aliquot by buffer exchange via PD-10 desalting columns (GE Healthcare, United Kingdom) according to the recommended protocol.
For reduction of the enzyme-bound flavin cofactor, wt-OhyA and mutant Q265A/T436A/N438A were diluted in 50 mM HEPES, pH 7.4, containing 50 mM NaCl, 5 mM EDTA, 1 μM 5-deazariboflavin and 4 μM methyl viologen to give an absorption of approximately 0.2 AU at 440 nm. The solution was transferred to a cuvette and oxygen was removed by incubation for at least 2 h in a glove box. Afterwards, the cofactor was reduced by anaerobic photoreduction or chemical reduction with dithiothreitol (DTT). […]

T1 sequence (C7DLJ6 whole entry): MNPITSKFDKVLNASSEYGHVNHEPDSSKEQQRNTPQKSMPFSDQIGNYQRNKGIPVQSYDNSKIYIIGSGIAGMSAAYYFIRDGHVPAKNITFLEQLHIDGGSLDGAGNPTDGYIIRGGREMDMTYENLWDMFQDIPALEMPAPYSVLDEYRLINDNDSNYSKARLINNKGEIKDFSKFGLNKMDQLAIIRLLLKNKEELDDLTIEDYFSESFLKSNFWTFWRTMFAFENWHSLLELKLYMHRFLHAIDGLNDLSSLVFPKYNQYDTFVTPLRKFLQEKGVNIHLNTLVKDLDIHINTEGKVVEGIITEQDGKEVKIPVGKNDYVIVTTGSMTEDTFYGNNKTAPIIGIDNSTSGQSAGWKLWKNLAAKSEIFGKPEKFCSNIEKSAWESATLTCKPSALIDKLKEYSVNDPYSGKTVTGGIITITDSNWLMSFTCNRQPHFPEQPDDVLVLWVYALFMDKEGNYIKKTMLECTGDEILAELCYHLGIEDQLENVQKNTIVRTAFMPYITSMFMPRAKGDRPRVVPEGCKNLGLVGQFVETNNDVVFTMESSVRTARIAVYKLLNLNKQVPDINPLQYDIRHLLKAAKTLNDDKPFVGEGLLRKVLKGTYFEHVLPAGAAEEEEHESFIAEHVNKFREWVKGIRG
T2 sequence (C7DLJ6 whole entry Q265A/T436A/N438A): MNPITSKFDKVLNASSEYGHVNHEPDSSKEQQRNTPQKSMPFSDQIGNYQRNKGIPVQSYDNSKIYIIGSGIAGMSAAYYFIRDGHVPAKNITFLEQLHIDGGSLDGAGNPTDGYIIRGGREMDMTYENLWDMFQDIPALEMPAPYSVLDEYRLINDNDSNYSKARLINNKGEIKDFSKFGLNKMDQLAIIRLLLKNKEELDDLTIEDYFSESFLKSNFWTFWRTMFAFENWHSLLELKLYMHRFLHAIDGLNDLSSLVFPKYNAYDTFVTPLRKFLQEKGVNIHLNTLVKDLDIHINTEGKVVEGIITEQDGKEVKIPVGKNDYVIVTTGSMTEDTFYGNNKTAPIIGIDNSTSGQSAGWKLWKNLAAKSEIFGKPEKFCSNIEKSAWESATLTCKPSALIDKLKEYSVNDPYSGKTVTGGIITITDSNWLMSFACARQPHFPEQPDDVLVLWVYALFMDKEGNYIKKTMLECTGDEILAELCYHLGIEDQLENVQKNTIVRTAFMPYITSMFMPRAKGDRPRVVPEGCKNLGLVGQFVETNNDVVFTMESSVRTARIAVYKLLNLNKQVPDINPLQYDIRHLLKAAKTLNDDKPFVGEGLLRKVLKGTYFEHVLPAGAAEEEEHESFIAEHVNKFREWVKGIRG
T3 sequence (C7DLJ6 whole entry Q265A/N438A): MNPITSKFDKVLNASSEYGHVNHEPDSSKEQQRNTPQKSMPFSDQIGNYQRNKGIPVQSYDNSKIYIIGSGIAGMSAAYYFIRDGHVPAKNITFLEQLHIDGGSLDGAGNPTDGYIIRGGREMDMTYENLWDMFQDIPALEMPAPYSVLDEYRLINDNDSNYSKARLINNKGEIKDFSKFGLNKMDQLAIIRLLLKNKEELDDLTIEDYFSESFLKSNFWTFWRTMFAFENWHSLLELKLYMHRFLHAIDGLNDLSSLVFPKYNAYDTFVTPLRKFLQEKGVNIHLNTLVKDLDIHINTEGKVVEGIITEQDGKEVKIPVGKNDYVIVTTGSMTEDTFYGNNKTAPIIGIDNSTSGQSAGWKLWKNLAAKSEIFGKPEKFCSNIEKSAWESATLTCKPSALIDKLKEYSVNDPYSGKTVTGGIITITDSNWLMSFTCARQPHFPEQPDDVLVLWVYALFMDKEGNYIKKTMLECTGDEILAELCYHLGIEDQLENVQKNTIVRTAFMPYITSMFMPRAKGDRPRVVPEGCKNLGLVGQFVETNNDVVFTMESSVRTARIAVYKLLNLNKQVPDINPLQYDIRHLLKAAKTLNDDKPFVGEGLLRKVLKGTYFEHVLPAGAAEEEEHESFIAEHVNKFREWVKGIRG
oleate hydratase from Elizabethkingia meningoseptica (OhyA, EC 4.2.1.53), sequence (C7DLJ6 whole entry): as the sequence (C7DLJ6 whole entry) above
T4 sequence (C7DLJ6 whole entry Q265A/T436A/N438A): as the sequence (C7DLJ6 whole entry Q265A/T436A/N438A) above

Structure (SMILES)	Apparent hydration activity normalized for biomass, OhyA WT (OhyA wild type (WT)) [mU g^−1 CDW]	relative hydration activity compared to wt-OhyA (OhyA Q265A/T436A/N438A)	e.e. of hydrated product (OhyA Q265A/T436A/N438A) [%]	Apparent hydration activity normalized for biomass, OhyA Q265A/T436A/N438A (OhyA Q265A/T436A/N438A) [mU g^−1 CDW]	enhanced relative hydration activity (OhyA Q265A/N438A)	enantiomeric excess (ee) of (R)-10-hydroxy stearic acid [1]	peak at the expected retention time of the hydrated product (GC-MS) [2]
CCCCCCCC/C=C\CCCCCCCC(=O)OCC [Entry 7, ethyl oleate]	0.2 ± 0.1	6 fold	>99	1.7 ± 0.1	–	–	–
CCCCCCCC/C=C\CCCCCCCC(=O)NO [Entry 4, N-hydroxy oleamide]	3.4 ± 0.7	at least 5 fold	>99	13.4 ± 2.5	at least 5 fold	–	–
CCCCCCCC/C=C\CCCCCCCC(N)=O [Entry 3, oleamide]	11.1 ± 0.7	–	>99	10.7 ± 0.3	–	–	–
CCCCCCCC/C=C\CCCCCCCC(=O)OCCCC [Entry 10, n-butyl oleate]	0.1 ± 0.1	–	>99	0.8 ± 0.1	–	–	–
CCCCCCCC/C=C\CCCCCCCCO [Entry 5, oleyl alcohol]	8.4 ± 2.1	at least 2 fold	>99	15.5 ± 1.0	–	–	–
CCCCCCCC/C=C\CCCCCCCC(=O)O [Entry 1, oleic acid]	26.3 ± 0.2	–	>99	28.4 ± 0.3	–	at least 98%	–
CCCCCCCC/C=C\CCCCCCCC(=O)OCCC [Entry 9, n-propyl oleate]	0.2 ± 0.1	20 fold	>99	0.9 ± 0.1	–	–	–
CCCCCCCC/C=C\CCCCCCCC(=O)OC(C)C [Entry 8, i-propyl oleate]	0.1 ± 0.1	–	>99	1.5 ± 0.1	–	–	–
CCCCCCCC/C=C\CCCCCCCC(=O)OC [Entry 6, methyl oleate]	0.3 ± 0.1	6 fold	>99	2.5 ± 0.2	–	–	only in the case of the variant
CCCCCCCC/C=C\CCCCCCCCN [Entry 2, oleyl amine]	–	–	>99	–	–	–	–
